The values below come from ChEMBL document CHEMBL1201862, “PubChem BioAssay data set” (2004).

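Grown in 96-well plates, cells were treated for 48 hours with each compound at five concentrations. Insufficient inhibition: endpoint recorded as highest concentration tested. Abbreviation: GI50, concentration required for 50% inhibition of growth.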 Activity calls are given as the source filed them. Cut-off read from the data, not from the text of the source: active = GI50 up to about 1.1 µM and inactive = higher.

Common to all, as to test: NCI-60 cell line screen, 48 h
Test [1] deals with SN12C.
Test [2] deals with CAKI-1.
Test [3] deals with SW-620.
Test [4] deals with SK-MEL-5.
Test [5] concerns SK-MEL-2.
Test [6] has as its system 786-0.
Test [7] has as its system HCC 2998.
The subject of test [8] is NCI-H460.
For test [9], the system named is SF-295.
Test [10] deals with SR.
Test [11] deals with UACC-62.
Test [12] has as its system RPMI-8226.
Test [13] deals with MOLT-4.
For test [14], the system named is SK-OV-3.
Test [15] concerns OVCAR-3.
Test [16] has as its system MCF7.
For test [17], the system named is PC-3.
The subject of test [18] is MDA-MB-231.
Test [19] concerns NCI/ADR-RES.

With `COC(=O)[C@@H]1CCCCC[C@H]2C(CO)=C(C)C(=O)C12` (some centres undefined), the GI50 in test [1], in [2], in test [3], in test [4], in test [5] and in test [6] was > 100 µM (inactive) each time. Also, the GI50 in test [7], in test [8], in [9], in test [10], in test [11] and in [12] was > 100 µM (inactive) each time. In addition, the GI50 in test [13] and in [14] was > 100 µM (inactive) each time.
Consider `CC(=O)O[C@@H]1C2C(=O)OC(=O)C2C2CCC[C@]23O[C@H]13` (some centres undefined), for which the GI50 in test [1], in test [2], in test [3], in test [4], in [5] and in test [6] was > 100 µM (inactive) in each case. The GI50 in test [7], in test [8], in test [15], in test [10], in test [11] and in [12] was > 100 µM (inactive) each time. For the same molecule, the GI50 in test [13] and in test [14] was > 100 µM (inactive) in each case.
On to `CSc1nc(SC)c2c(C#N)n[nH]c2n1`, for which the GI50 in test [1], in test [2], in test [3], in test [4], in [5] and in test [6] was > 100 µM (inactive) in each case. The GI50 in test [7], in test [8], in [15], in test [9], in test [10] and in test [11] was > 100 µM (inactive) each time. Also, the GI50 in [12], in [13] and in [14] was > 100 µM (inactive) in each case.
With `CCCCC(CCCC)=NNC(=S)SC`, the GI50 in test [1] was 34.2 µM (inactive); in [3], 38.9 µM (inactive); in test [4], 16.1 µM (inactive); in [5], 36.4 µM (inactive); in test [6], 34.8 µM (inactive); in [7], 15.4 µM (inactive). In addition, the GI50 was 30.3 µM (inactive) in test [8]; 28.6 µM (inactive) in test [16]; 40.1 µM (inactive) in test [17]; 22 µM (inactive) in [11]; 18 µM (inactive) in test [13]; 28.3 µM (inactive) in [18]. Besides, the GI50 is > 100 µM (inactive) in test [14] and 25.1 µM (inactive) in test [19].
Turning to `NCCc1ccc2oc3cc(=O)c4ccccc4c-3nc2c1`, the GI50 in [1] is 2.22 µM (inactive); in test [2] it was 11.5 µM (inactive); in [3], 2.19 µM (inactive); in [4] it was 0.705 µM (active); in [5], 1.71 µM (inactive); in test [6], 2.12 µM (inactive). The GI50 in test [7] is 2.37 µM (inactive); in test [8], 0.9 µM (active); in test [15], 2.16 µM (inactive); in test [9], 2.3 µM (inactive); in test [10] it was 1.62 µM (inactive); in test [11], 4.37 µM (inactive). Further, the GI50 in [12] is 2.55 µM (inactive); in test [13] it was 1.9 µM (inactive); in [14], 12.1 µM (inactive).
As for `NCCCNCCCCN(CCCN)/[N+]([O-])=N\O`, the GI50 in [1], in [2], in test [3], in test [4], in test [5] and in [6] was > 100 µM (inactive) throughout. Moreover, the GI50 is > 100 µM (inactive) in test [7]; > 100 µM (inactive) in test [8]; > 100 µM (inactive) in test [15]; > 100 µM (inactive) in [9]; 28.6 µM (inactive) in [10]; > 100 µM (inactive) in test [11]. Further, the GI50 in test [12] was 29.8 µM (inactive); in test [13], > 100 µM (inactive).
Turning to `C/C(CN1C(=O)c2ccccc2C1=O)=N\NS(=O)(=O)c1cccc(C(=O)O)c1`, the GI50 in [1], in test [2], in [3], in [4], in test [5] and in test [6] was > 100 µM (inactive) in each case. Further, the GI50 in [7], in [8], in [15], in test [9], in [10] and in [11] was > 100 µM (inactive) in each case. For the same molecule, the GI50 in [12], in test [13] and in test [14] was > 100 µM (inactive) throughout.
Turning to `Cc1c(-c2cc(-c3ccccc3)n[nH]c2=O)c2ccccc2n1C`, the GI50 in test [1], in [2], in test [3], in test [4], in test [5] and in [6] was > 100 µM (inactive) in each case. For the same molecule, the GI50 in test [7], in test [8], in test [15], in test [9], in test [10] and in [11] was > 100 µM (inactive) throughout. Besides, the GI50 in test [12] is 76.2 µM (inactive); in test [13], > 100 µM (inactive); in [14], > 100 µM (inactive).
On to `C=C1C(OC(=O)/C=C/c2ccccc2)CC(OC(C)=O)C2(C)C1CC1CC(OC(C)=O)C(C)=C(C(OC(C)=O)C2OC(C)=O)C1(C)C` (centres undefined), for which the GI50 in test [1] was > 100 µM (inactive); in test [2], > 100 µM (inactive); in test [3], > 100 µM (inactive); in test [4], 4.1 µM (inactive); in [6], > 100 µM (inactive); in test [7], 7.71 µM (inactive). Moreover, the GI50 in test [8] is 6.67 µM (inactive); in test [9], > 100 µM (inactive); in test [10], 3.97 µM (inactive); in [11] it was > 100 µM (inactive); in test [12], 3.13 µM (inactive); in [13], 4.61 µM (inactive). Moreover, the GI50 in test [14] was > 100 µM (inactive).
Consider `CCOC(=O)C1=C(C)Nc2ccccc2S1`, for which the GI50 in test [1], in test [2], in test [3], in [4], in test [5] and in test [6] was > 100 µM (inactive) in each case. The GI50 was > 100 µM (inactive) in [7]; > 100 µM (inactive) in [8]; > 100 µM (inactive) in [15]; > 100 µM (inactive) in [9]; > 100 µM (inactive) in [10]; 3.21 µM (inactive) in test [11]. In addition, the GI50 in test [12] is 48.3 µM (inactive); in test [13], 46.1 µM (inactive); in test [14], > 100 µM (inactive).
